The subject of one data set is S. aureus (ATCC29213). Kind of data set: MIC by broth microdilution, S. aureus. It counts as cell-based, Staphylococcus aureus. The settings on record: Staphylococcus aureus. The procedure:
(§1) In this study, we have, therefore, altered our strategy and used minimal inhibitory concentration assays to identify and improve antibacterial agents. A total of 10 pyrrolopyrimidines with variation of the 4-amino group were assayed for their MIC in E. coli (MG1655) and S. aureus (ATCC29213) using the broth microdilution method. Subsequently, the compounds were also counter-screened for their inhibition of human EGFR.
(§2) The MIC of compound 1–21 towards Escherichia coli (MG1655) and Staphylococcus aureus (ATCC29213) was determined following the standards that were recommended by the Clinical and Laboratory Standards Institute (CLSI) for the broth microdilution method. Briefly, the bacterial suspensions were adjusted to 0.5 McFarland standard (~1 × 10^8 colony forming units (CFU)/mL) and diluted 1:200 in Cation-Adjusted Mueller-Hinton Broth (CAMHB, […], […]). The suspension was subsequently added to polypropylene microtiter plates (100 µL/well, ~5 × 10^4 CFU/well) that were already prepared with different concentrations of the various halogenated fused pyrimidines (11 µL/well, two-fold serial dilutions). The plates were incubated at 37 °C overnight before inspection for visible growth and determination of the MIC values.
Background: In broth dilution the organism is exposed to a series of concentrations in liquid medium.

For a further data set, the system named is E. coli (MG1655). Kind of data set: MIC by broth microdilution, E. coli. It counts as cell-based, Escherichia coli. The settings on record: for MIC: Escherichia coli, E. coli MG1655, broth microdilution. As to the method: as §1, §2
The test system of the next data set is S. aureus. Kind of data set: MIC towards S. aureus in combination with the peptide betatide. It counts as cell-based, Staphylococcus aureus. As to conditions: betatide 8 mg/L (half its MIC). As to the method:
The concentration of betatide was 8 mg/L, which corresponds to half the MIC concentration.
as §2

For the next data set, the target named is T1, human EGFR (Homo sapiens, UniProt P00533).
T1 construct: purchased Invitrogen (ThermoFisher), assay service
Put plainly: Enzymatic EGFR (ErbB1) inhibition, Z'-LYTE. As to conditions: for inhibition at 0.1 µM: 100 nM compound, ATP equal to KM; for IC50: average of 2 titration curves, ATP equal to apparent KM, read-out: IC50 towards EGFR. It counts as biochemical. The procedure: The compounds were supplied in a 10 mM DMSO solution, and enzymatic EGFR (ErbB1) inhibition potency was determined by Invitrogen (ThermoFisher) using their Z’-LYTE® assay technology. The compounds were tested for their inhibitory activity at 100 nM in duplicates. The IC50 values that were reported for 1 and 5 are based on the average of 2 titration curves (20 data points), and were calculated from activity data with a four-parameter logistic model using SigmaPlot (Windows Version 12.0 from Systat Software, Inc., Palo Alto, CA, USA). Unless stated otherwise, the ATP concentration that was used was equal to apparent KM.

Data set [1] deals with T2, E. coli TMPK (Escherichia coli, UniProt P0A720).
T2 construct: purchased ProFoldin TMK100KE
Put plainly: E. coli TMPK assay (ProFoldin kit). It counts as biochemical. As to conditions: enzymatic; read-out: IC50 towards E. coli TMPK. As to the method:
(§3) The inhibition of EcTMPK was determined by Profoldin using the E. coli Thymidylate Kinase Assay Kit Plus (ProFoldin, Catalog No. TMK100KE, Hudson, MA, USA), where dTMP was phosphorylated by ATP that was catalyzed by TMPK. The assay was run in 96-well black plates at 36 °C. The formation of ADP was measured by adding a fluorescent dye and measuring the fluorescence emission at 535 nm after excitation at 485 nm. The readout was corrected for emission from the assay cocktail and DMSO. An ADP control assay was also performed to correct for possible interference with ADP detection. Single-point inhibitions were measured at 8.3 µM inhibitor concentrations. The IC50-values were determined from a similar assay, where 2-fold dilution series from […] were used. The assay towards the human enzyme was run similarly but using the Human Thymidylate Kinase Assay Kit Plus-500 (Catalog Number: HTMK500KE, ProFoldin, Hudson, MA, USA).

The subject of data set [2] is panel of 50 human kinases (EGFR most inhibited). Kind of data set: Kinase panel, Z'-LYTE, 50 human kinases. In kind it is biochemical. The procedure:
As the starting point of this study was the EGFR inhibitor PKI-166 (1), there is an obvious risk of kinase off-target effects for the bromo derivative 5. Therefore, we profiled 5 towards a panel of 50 human kinases. […] Based on our previous experience, it is assumed that the EGFR inhibiting activity of 5 is too low to cause in vivo effects.
The compounds were supplied in a 10 mM DMSO solution, and enzymatic kinase inhibition potency was determined by ThermoFisher (Invitrogen, Waltham, MA, USA) using their Z’-LYTE® assay technology, at 500 nM in duplicates. The ATP concentration that was used was equal to Km, except when this service was not provided, and other concentrations had to be used.

Another data set concerns the target T3, human TMPK (Homo sapiens, UniProt P23919).
T3 construct: purchased ProFoldin HTMK500KE
T3 sequence (P23919 1-212): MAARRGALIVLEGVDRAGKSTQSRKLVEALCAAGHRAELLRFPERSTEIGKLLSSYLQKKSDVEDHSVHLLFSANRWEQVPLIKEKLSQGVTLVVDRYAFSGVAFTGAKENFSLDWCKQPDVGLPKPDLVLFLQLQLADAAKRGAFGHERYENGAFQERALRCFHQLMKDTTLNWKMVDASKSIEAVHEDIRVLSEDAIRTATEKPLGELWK
Kind of data set: Human TMPK assay (ProFoldin kit). In kind it is biochemical. As to conditions: enzymatic; read-out: IC50 towards human TMPK. The procedure: as §3

The target in data set [3] is T2, E. coli TMPK. More on the design: method as in doi:10.1002/slct.202103796. The settings on record: previous study; read-out: IC50 against E. coli TMPK; cited from earlier work.
[4] abbreviates: ATCC29213, S. aureus, single agent (Table 3), read-out: Single Comp. MIC.
The mark [5] stands for this setting: S. aureus ATCC29213, broth microdilution, read-out: S. aureus MIC.

Consider 3 compounds from PMC9330635, “Halogenated Pyrrolopyrimidines with Low MIC on Staphylococcus aureus and Synergistic Effects with an Antimicrobial Peptide” (Antibiotics, 2022).

Converted amounts (≈) assume the structure as drawn. Where two headings read alike, the source gives them in different places.

T1 sequence (P00533 25-1210): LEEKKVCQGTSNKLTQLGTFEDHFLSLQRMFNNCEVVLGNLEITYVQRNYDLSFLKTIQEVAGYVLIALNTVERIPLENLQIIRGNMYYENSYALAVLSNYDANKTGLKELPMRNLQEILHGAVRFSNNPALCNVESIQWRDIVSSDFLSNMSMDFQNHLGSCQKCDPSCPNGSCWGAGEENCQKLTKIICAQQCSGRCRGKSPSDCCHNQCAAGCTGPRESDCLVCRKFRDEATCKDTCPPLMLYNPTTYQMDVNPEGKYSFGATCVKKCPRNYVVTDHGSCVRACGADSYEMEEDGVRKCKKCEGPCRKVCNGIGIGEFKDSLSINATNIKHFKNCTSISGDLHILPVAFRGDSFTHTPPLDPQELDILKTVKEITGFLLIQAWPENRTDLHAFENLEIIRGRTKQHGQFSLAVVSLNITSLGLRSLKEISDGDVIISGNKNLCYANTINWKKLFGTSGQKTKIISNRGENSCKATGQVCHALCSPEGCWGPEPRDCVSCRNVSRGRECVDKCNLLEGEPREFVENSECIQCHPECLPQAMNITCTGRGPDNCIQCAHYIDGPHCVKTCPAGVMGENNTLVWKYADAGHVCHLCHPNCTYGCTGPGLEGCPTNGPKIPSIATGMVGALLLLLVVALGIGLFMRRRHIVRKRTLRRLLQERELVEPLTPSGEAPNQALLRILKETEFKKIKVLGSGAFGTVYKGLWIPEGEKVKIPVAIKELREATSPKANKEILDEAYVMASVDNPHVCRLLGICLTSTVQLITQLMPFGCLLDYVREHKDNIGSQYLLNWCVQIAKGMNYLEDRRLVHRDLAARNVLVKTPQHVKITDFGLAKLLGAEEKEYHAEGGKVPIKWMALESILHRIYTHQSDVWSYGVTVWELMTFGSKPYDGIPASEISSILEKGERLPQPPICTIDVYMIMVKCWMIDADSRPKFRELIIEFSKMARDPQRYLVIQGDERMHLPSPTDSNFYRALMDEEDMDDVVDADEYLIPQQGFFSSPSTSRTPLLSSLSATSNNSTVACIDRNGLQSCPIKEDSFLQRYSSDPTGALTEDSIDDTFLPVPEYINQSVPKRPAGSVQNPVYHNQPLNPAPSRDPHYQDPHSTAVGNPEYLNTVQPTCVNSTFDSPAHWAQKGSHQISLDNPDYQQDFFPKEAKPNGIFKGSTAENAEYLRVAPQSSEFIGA
T2 sequence (P0A720 whole entry): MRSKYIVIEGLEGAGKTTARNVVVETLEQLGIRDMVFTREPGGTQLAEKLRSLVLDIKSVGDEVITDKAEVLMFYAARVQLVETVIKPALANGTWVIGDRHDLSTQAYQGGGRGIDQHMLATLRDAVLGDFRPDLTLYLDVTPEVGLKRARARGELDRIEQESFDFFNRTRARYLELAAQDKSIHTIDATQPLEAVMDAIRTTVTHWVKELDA

What is called MIC is the lowest concentration found to suppress growth. As usually defined, the inhibition is the relative decrease from the control value, in per cent. A low value points to a response near the control. In general, melting point refers to the temperature, or range, at which the solid turns liquid. Take `C[C@@H](Nc1ncnc2[nH]c(-c3ccc(O)cc3)cc12)c1ccc(Cl)cc1` [Compound 4, (R)-4-(4-((1-(4-Chlorophenyl)ethyl)amino)-7H-pyrrolo[2,3-d]pyrimidin-6-yl)phenol]: the melting point is 216.6 °C (dec.). For the same compound, in the data set with S. aureus (ATCC29213) (setting [4]), the MIC stood at 16 µg/mL (≈ 43.9 µM). Further, in the data set on S. aureus (ATCC29213) (setting [5]), the MIC was found to be 16 µg/mL (≈ 43.9 µM). Besides, the minimal inhibitory concentration (MIC) in the data set on E. coli (MG1655) was over 128 µg/mL. Besides, the “Combination with Betatide MIC” value with S. aureus is 4 µg/mL. This compound also registered an inhibition at 0.1 µM on human EGFR of 91%.

Broadly, the IC50 is the point on the concentration scale where inhibition reaches its midpoint. For `C[C@@H](Nc1ncnc2[nH]c(-c3ccc(O)cc3)cc12)c1ccc(Br)cc1` [Compound 5, (R)-4-(4-((1-(4-Bromophenyl)ethyl)amino)-7H-pyrrolo[2,3-d]pyrimidin-6-yl)phenol], the results for the MIC in the data set on S. aureus (ATCC29213) (setting [4]), with S. aureus (ATCC29213) (setting [5]) and against E. coli (MG1655) were 8 µg/mL (≈ 19.5 µM), 8 µg/mL (≈ 19.5 µM) and over 128 µg/mL, respectively. The IC50 on E. coli TMPK [1] is 5 µM; at human EGFR, 0.025 µM; on human TMPK, over 100 µM. Further, the “Combination with Betatide MIC” value in the data set on S. aureus turned out to be 1 µg/mL. The “EGFR inhibition in kinase panel” value in data set [2] (500 nM test concentration) stood at 91%. For the same compound, in [2] (500 nM, 50 human kinases, other than EGFR), the “Inhibition of all the other kinases of the panel” value is listed as “very low inhibition”. Besides, at 0.1 µM the inhibition at human EGFR was 81%.

As for `C[C@@H](Nc1ncnc2[nH]c(-c3ccc(O)cc3)cc12)c1ccccc1` [Compound 1, (R)-4-(4-((1-Phenylethyl)amino)-7H-pyrrolo[2,3-d]pyrimidin-6-yl)phenol, reference compound], the MIC with S. aureus (ATCC29213) (setting [4]) is 64 µg/mL (≈ 194 µM); in the data set with S. aureus (ATCC29213) (setting [5]), 64 µg/mL (≈ 194 µM); against E. coli (MG1655), over 128 µg/mL. In addition, the IC50 was 15 µM at E. coli TMPK [3] and under 0.001 µM on human EGFR. The “Activity towards E. coli in culture (in words)” value in the data set on E. coli (MG1655) (culture, MIC assay) was “did not possess any activity”. Also, the “Combination with Betatide MIC” value in the data set on S. aureus was 8 µg/mL. This compound also displayed an inhibition at 0.1 µM on human EGFR of 100%.
